Source: the NIST ThermoML archive (doi:10.1021/je060271a)

Conditions: 343.15 K, Liquid, Vibrating tube method

CCCCCCCC(=O)OCC(COC(=O)CCCCCCC)(COC(=O)CCCCCCC)COC(=O)CCCCCCC [pentaerythritol tetraoctanoate]
Conditions	mass density [kg/m3]
4105.1 kPa	929.1
4132.4 kPa	929.2
4136.6 kPa	929.1
4140.2 kPa	929.1
4142.5 kPa	929
4144.7 kPa	929.2
4148 kPa	929.2
4149.4 kPa	929
4149.6 kPa	929
4163.9 kPa	929.2
4189.2 kPa	929.1
4213.5 kPa	929.1
4238.2 kPa	929.2
4268.5 kPa	929.1
4295 kPa	929.3
4321.4 kPa	929.2
4348.4 kPa	929.2
4373.8 kPa	929.1
4394.2 kPa	929.2
4418.5 kPa	929.1
4438.6 kPa	929.2
4459 kPa	929.3
4483.8 kPa	929.4
4504.7 kPa	929.3
4525.8 kPa	929.4
4546.8 kPa	929.4
4573.1 kPa	929.3
4596.8 kPa	929.5
4619 kPa	929.5
4641.5 kPa	929.4
4713.3 kPa	929.5
4740.6 kPa	929.4
4763.8 kPa	929.5
4787 kPa	929.6
4811.1 kPa	929.6
4839.6 kPa	929.6
4864.5 kPa	929.5
4889.8 kPa	929.7
4915.8 kPa	929.8
4945.5 kPa	929.6
4970.5 kPa	929.8
4996.2 kPa	929.6
5026.3 kPa	929.7
5052.8 kPa	929.8
5079.6 kPa	929.8
5112.2 kPa	929.7
5139.3 kPa	929.8
5167 kPa	929.8
5189.5 kPa	929.8
5228.6 kPa	929.8
5257.5 kPa	929.9
5286.4 kPa	929.8
5321 kPa	930
5350.7 kPa	930
5380.5 kPa	929.9
5410.7 kPa	929.9
5447.9 kPa	929.9
5480.3 kPa	930
5514 kPa	930.1
5545.6 kPa	930.2
5572.5 kPa	930.2
5593.9 kPa	930.1
5619.7 kPa	930.1
5642.1 kPa	930.2
5664.3 kPa	930.2
5686.4 kPa	930.2
5712.7 kPa	930.3
5735.2 kPa	930.2
5757.8 kPa	930.3
5785.1 kPa	930.2
5808.1 kPa	930.2
5832 kPa	930.3
5855.9 kPa	930.3
5884.4 kPa	930.4
5908.6 kPa	930.4
5933.3 kPa	930.4
5959.2 kPa	930.5
5984.1 kPa	930.3
6013.9 kPa	930.4
6039.1 kPa	930.4
6064.3 kPa	930.5
6090.1 kPa	930.4
6121 kPa	930.5
6147.5 kPa	930.5
6174.6 kPa	930.5
6205.9 kPa	930.5
6232.5 kPa	930.6
6260.2 kPa	930.7
6288.7 kPa	930.6
6316.5 kPa	930.6
6348.8 kPa	930.7
6376.3 kPa	930.6
6404.7 kPa	930.6
6439.7 kPa	930.7
6468.8 kPa	930.7
6497.8 kPa	930.7
6532.7 kPa	930.8
6563.4 kPa	930.8
6593.5 kPa	930.9
6624.3 kPa	930.8
6662.3 kPa	930.8
6694.9 kPa	930.9
6726.4 kPa	930.9
6757.3 kPa	930.9
6788.9 kPa	931.1
6826.4 kPa	931
6858.7 kPa	931.1
6891.5 kPa	931
6930.9 kPa	931.2
6964.4 kPa	931
6998.3 kPa	931.1
7038.9 kPa	931.2
7073.6 kPa	931.2
7109 kPa	931.2
7146.6 kPa	931.3
7184.3 kPa	931.3
7220.4 kPa	931.2
7264.4 kPa	931.2
7301.6 kPa	931.4
7339.6 kPa	931.5
7378.1 kPa	931.3
7424.8 kPa	931.3
7463.5 kPa	931.5
7503.2 kPa	931.5
7535.8 kPa	931.5
7575 kPa	931.6
7614.7 kPa	931.5
7673.1 kPa	931.6
7715 kPa	931.7
7765.2 kPa	931.6
7808 kPa	931.8
7853.1 kPa	931.7
7898.8 kPa	931.7
7950.2 kPa	931.8
7984.6 kPa	931.8
8150.9 kPa	931.9
8189.7 kPa	932
8222.6 kPa	932
8255.6 kPa	932
8295.8 kPa	932.1
8329.6 kPa	932.1
8363.2 kPa	932.1
8515 kPa	932.1
8550.2 kPa	932.2
8585.9 kPa	932.3
8629.7 kPa	932.3
8666.6 kPa	932.3
8703.3 kPa	932.4
8739.9 kPa	932.4
8784.7 kPa	932.5
8991.7 kPa	932.5
9031.4 kPa	932.6
9071.9 kPa	932.5
9120.5 kPa	932.6
9162.4 kPa	932.7
9204.8 kPa	932.7
9248.6 kPa	932.6
9301 kPa	932.7
9344.4 kPa	932.8
9387.6 kPa	932.8
9449 kPa	932.8
9480 kPa	933
9517.6 kPa	933
9549.6 kPa	933.1
9582.5 kPa	933
9620.6 kPa	932.9
9653.7 kPa	933.2
9687.4 kPa	933
9726.7 kPa	933.1
9760 kPa	933.1
9793.4 kPa	933.2
9827.7 kPa	933
9868.1 kPa	933.1
9902.1 kPa	933.2
9943.1 kPa	933.2
9978.4 kPa	933.4
10014 kPa	933.3
10058 kPa	933.4
10096 kPa	933.4
10138 kPa	933.4
10176 kPa	933.4
10207 kPa	933.3
10234 kPa	933.4
10256 kPa	933.5
10278 kPa	933.4
10305 kPa	933.6
10327 kPa	933.5
10349 kPa	933.5
10376 kPa	933.6
10422 kPa	933.8
10450 kPa	933.7
10474 kPa	933.6
10497 kPa	933.7
10520 kPa	933.7
10543 kPa	933.8
10572 kPa	933.6
10595 kPa	933.7
10618 kPa	933.7
10647 kPa	933.6
10671 kPa	933.7
10699 kPa	933.7
10723 kPa	933.8
10748 kPa	933.8
10777 kPa	933.8
10803 kPa	933.9
10827 kPa	933.9
10852 kPa	933.8
10881 kPa	933.9
10906 kPa	933.9
10936 kPa	934
10961 kPa	934
10987 kPa	933.9
11012 kPa	933.9
11042 kPa	934
11068 kPa	934
11099 kPa	934.1
11126 kPa	933.9
11153 kPa	934
11180 kPa	934.2
11206 kPa	934.2
11238 kPa	934.2
11264 kPa	934.2
11296 kPa	934.3
11323 kPa	934.3
11350 kPa	934.2
11383 kPa	934.3
11410 kPa	934.3
11438 kPa	934.3
11471 kPa	934.3
11499 kPa	934.3
11528 kPa	934.4
11561 kPa	934.4
11590 kPa	934.4
11618 kPa	934.4
11647 kPa	934.2
11710 kPa	934.4
11739 kPa	934.5
11774 kPa	934.4
11804 kPa	934.5
11834 kPa	934.4
11869 kPa	934.5
11900 kPa	934.6
11930 kPa	934.7
11966 kPa	934.6
11997 kPa	934.7
12027 kPa	934.6
12064 kPa	934.7
12095 kPa	934.7
12126 kPa	934.7
12163 kPa	934.8
12195 kPa	934.7
12227 kPa	934.8
12265 kPa	934.9
12296 kPa	934.8
12329 kPa	934.9
12362 kPa	934.8
12401 kPa	934.9
12434 kPa	935
12468 kPa	935
12507 kPa	935
12541 kPa	935
12575 kPa	935
12615 kPa	935.1
12649 kPa	935.2
12684 kPa	935.1
12725 kPa	935.1
12760 kPa	935.1
12797 kPa	935.2
12831 kPa	935.2
12873 kPa	935.3
12909 kPa	935.2
12944 kPa	935.3
12980 kPa	935.3
13024 kPa	935.5
13060 kPa	935.3
13096 kPa	935.4
13140 kPa	935.5
13177 kPa	935.5
13222 kPa	935.7
13261 kPa	935.6
13300 kPa	935.6
13339 kPa	935.6
13384 kPa	935.7
13423 kPa	935.6
13462 kPa	935.6
13508 kPa	935.7
13548 kPa	935.8
13587 kPa	935.6
13635 kPa	935.7
13675 kPa	935.7
13716 kPa	935.8
13807 kPa	936
13849 kPa	936
13893 kPa	936
13947 kPa	936
13993 kPa	936.1
